We go through three molecules from article PMC8038316 (International Journal of Molecular Sciences, 2021).

Where only a bound is given, the exact number is not on record here.

Assay [1] concerns the target T1, succinate dehydrogenase (SDH; succinate:quinone oxidoreductase, SQR, EC 1.3.5.1; complex II) (Pyricularia oryzae, UniProt A0ABQ8NN34+G4N2P5+G4NB04).
T1 construct: gene SDH2
In words: biochemical.

The target of assay [2] is T2, cytochrome bc1 complex (complex III; decylubiquinol:Cyt c reductase, EC 1.10.2.2) (Pyricularia grisea, UniProt Q85KP9).
T2 construct: gene cytb
In words: biochemical. Particulars: read-out: % inhibition at 50 μM.

As a reminder, the inhibition is the change of the read-out against control, counted positive when it falls. Consider `CO/C=C(/C(=O)OC)c1ccccc1COc1cccc(NC(=O)c2ccccc2NC(C)=O)c1` [11b], for which, in assay [1] (read-out: % inhibition at 400 μM), the inhibition at 400 µM is around 23%. Moreover, the inhibition at 50 µM in assay [2] is 58 ± 18%.

Consider `CO/C=C(/C(=O)OC)c1ccccc1Oc1cc(Oc2ccccc2C#N)ncn1` [compound 2, azoxystrobin], for which, in assay [2], the inhibition at 50 µM is 61 ± 10%.

`Cn1cc(C(=O)Nc2ccccc2-c2cc(F)c(F)c(F)c2)c(C(F)F)n1` [compound 6, fluxapyroxad]: the inhibition at 40 µM in assay [1] (read-out: % inhibition at 40 μM) is above 90%.
